According to ChEMBL document CHEMBL3853267 (Medchemcomm, 2016):

Legend:
[1] = Activity at NET in rat synaptosomes obtained from whole brain minus striatum and cerebellum assessed as release of [3H]MPP+ by liquid scintillation counting method; assay type: subcellular
Rattus norvegicus [2] = organism: Rattus norvegicus; experiment: Selectivity ratio of EC50 for DAT in rat synaptosomes to EC50 for SERT in rat synaptosomes; assay type: subcellular
[3] = biological target: T1, 5-hydroxytryptamine receptor 2A (Homo sapiens, UniProt P28223); experiment: Agonist activity at human 5-HT2A receptor expressed in HEK293 cells assessed as induction of calcium mobilization incubated for 15 mins by calcium 5 dye-based fluorescence assay; assay type: cell-based
Rattus norvegicus [4] = organism: Rattus norvegicus; experiment: Selectivity ratio of EC50 for NET in rat synaptosomes to EC50 for SERT in rat synaptosomes; assay type: subcellular
[5] = biological target: T1, 5-hydroxytryptamine receptor 2A; experiment: Agonist activity at human 5-HT2A receptor expressed in HEK293 cells by [3H]-inositol phosphate accumulation assay; assay type: cell-based
[6] = biological target: 5-hydroxytryptamine receptor 2B (Homo sapiens, UniProt P41595); experiment: Agonist activity at human 5-HT2B receptor expressed in HEK293 cells by [3H]-inositol phosphate accumulation assay; assay type: cell-based
[7] = biological target: T2, 5-hydroxytryptamine receptor 2C (Homo sapiens, UniProt P28335); experiment: Agonist activity at human 5-HT2C receptor expressed in HEK293 cells by [3H]-inositol phosphate accumulation assay; assay type: functional, cell-based
T2 sequence (P28335 whole entry): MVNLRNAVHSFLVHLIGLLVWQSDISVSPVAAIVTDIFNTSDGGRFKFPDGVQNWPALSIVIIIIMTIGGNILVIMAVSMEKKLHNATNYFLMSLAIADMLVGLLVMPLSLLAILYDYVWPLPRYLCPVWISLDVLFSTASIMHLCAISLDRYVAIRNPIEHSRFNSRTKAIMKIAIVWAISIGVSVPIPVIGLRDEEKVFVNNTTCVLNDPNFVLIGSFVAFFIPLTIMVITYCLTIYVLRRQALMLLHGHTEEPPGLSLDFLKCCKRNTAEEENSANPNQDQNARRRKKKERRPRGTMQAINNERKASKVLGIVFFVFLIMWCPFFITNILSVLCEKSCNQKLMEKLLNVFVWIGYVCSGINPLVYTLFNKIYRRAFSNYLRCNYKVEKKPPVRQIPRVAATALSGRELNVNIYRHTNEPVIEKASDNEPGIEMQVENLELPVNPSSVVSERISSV

[8] = biological target: T3, 5-hydroxytryptamine receptor 2C (Homo sapiens) (UniProt P28335); experiment: Agonist activity at human 5-HT2C receptor expressed in HEK293 cells by [3H]-inositol phosphate accumulation assay relative to 5-HT; assay type: functional, cell-based
T3 sequence (whole entry): T2 sequence (P28335 whole entry)

[9] = biological target: Sodium-dependent serotonin transporter (Rattus norvegicus, UniProt P31652); experiment: Activity at SERT in rat synaptosomes obtained from whole brain minus striatum and cerebellum assessed as release of [3H]5-HT by liquid scintillation counting method; assay type: subcellular
[10] = biological target: T2, 5-hydroxytryptamine receptor 2C; experiment: Agonist activity at human 5-HT2C receptor expressed in HEK293 cells assessed as induction of calcium mobilization incubated for 15 mins by calcium 5 dye-based fluorescence assay; assay type: functional, cell-based
Rattus norvegicus [11] = organism: Rattus norvegicus; experiment: Selectivity ratio of EC50 for DAT in rat synaptosomes to EC50 for NET in rat synaptosomes; assay type: subcellular
Rattus norvegicus [12] = organism: Rattus norvegicus; experiment: Selectivity ratio of EC50 for NET in rat synaptosomes to EC50 for DAT in rat synaptosomes; assay type: subcellular

Sequence of Sodium-dependent serotonin transporter (P31652 whole entry): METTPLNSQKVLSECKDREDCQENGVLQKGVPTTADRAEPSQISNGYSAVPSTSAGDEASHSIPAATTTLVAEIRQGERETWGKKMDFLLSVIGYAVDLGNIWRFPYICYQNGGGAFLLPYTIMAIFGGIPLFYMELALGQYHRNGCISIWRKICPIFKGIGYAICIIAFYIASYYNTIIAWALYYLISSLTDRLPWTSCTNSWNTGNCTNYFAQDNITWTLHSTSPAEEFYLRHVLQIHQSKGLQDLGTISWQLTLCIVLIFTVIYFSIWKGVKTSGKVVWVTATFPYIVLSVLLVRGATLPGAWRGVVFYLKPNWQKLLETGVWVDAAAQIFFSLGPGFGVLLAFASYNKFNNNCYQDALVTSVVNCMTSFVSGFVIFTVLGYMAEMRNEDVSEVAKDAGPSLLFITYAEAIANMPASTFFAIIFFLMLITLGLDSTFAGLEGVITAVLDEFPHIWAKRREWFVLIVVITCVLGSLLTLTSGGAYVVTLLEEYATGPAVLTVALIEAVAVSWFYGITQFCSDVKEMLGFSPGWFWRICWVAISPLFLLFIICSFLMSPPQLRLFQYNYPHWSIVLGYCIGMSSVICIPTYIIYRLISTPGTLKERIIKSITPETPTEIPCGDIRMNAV
T1 sequence (P28223 whole entry): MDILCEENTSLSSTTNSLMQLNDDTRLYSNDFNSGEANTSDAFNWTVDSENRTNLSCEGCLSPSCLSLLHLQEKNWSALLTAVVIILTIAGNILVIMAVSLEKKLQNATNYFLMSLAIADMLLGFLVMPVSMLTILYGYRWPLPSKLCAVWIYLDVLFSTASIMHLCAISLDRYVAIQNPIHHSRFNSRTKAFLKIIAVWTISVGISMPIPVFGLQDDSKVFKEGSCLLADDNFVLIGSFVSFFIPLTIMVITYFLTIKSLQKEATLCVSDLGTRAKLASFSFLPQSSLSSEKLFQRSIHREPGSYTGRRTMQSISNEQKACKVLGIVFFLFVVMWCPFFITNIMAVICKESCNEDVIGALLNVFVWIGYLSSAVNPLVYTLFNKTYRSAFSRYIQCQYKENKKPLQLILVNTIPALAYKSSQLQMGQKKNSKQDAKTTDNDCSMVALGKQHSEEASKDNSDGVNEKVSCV
Sequence of 5-hydroxytryptamine receptor 2B (P41595 whole entry): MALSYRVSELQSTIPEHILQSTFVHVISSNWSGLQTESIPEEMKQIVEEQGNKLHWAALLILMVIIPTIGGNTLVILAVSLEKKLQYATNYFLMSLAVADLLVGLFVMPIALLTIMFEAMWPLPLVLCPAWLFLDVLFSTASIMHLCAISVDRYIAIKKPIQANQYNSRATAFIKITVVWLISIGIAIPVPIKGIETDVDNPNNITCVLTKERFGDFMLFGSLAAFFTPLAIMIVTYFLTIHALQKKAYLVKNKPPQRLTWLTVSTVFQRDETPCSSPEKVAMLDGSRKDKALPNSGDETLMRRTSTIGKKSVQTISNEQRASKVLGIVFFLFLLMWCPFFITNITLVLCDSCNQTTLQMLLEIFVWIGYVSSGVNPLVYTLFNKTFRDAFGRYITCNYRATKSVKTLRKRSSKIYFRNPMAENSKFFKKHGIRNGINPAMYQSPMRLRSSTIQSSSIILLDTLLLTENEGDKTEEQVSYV

Compound | EC50 [1] [µM] | Ratio EC50 (Rattus norvegicus [2]) | other results
CC(N)C/C=C\c1ccccc1 (racemic) | 0.621 | 1.4 | –
C[C@@H](N)C/C=C/c1ccccc1 | 0.279 | 5 | EC50 [3]: > 10 µM
C[C@H](N)C/C=C/c1ccccc1 | 0.138 | 5 | Ratio EC50 (Rattus norvegicus [4]): 3.5
CC(N)Cc1ccc2ccccc2c1 (stereo not drawn) | – | – | EC50 [5]: 0.466 µM; EC50 [6]: 0.04 µM; EC50 [7]: 0.0023 µM; Emax [8]: 20%
C[C@@H](N)CC#Cc1ccccc1 | 0.496 | 2.3 | EC50 [3]: > 10 µM
C[C@H](N)C/C=C\c1ccccc1 | 0.17 | – | EC50 [9]: 0.663 µM; EC50 [10]: > 10 µM
C[C@@H](N)C/C=C\c1ccccc1 | 0.211 | 1.2 | Ratio EC50 (Rattus norvegicus [11]): 6.7
CC(N)/C=C\c1ccccc1 (stereo not drawn) | 0.301 | – | EC50 [9]: > 10 µM; Ratio EC50 (Rattus norvegicus [11]): 3.7
CC(N)C/C=C/c1ccccc1 (racemic) | 0.239 | 5 | –
CC(N)/C=C/c1ccccc1 (stereo not drawn) | 0.308 | – | EC50 [9]: > 10 µM; Ratio EC50 (Rattus norvegicus [11]): 2.2
CC(N)CC#Cc1ccccc1 (racemic) | 2.98 | 2.6 | Ratio EC50 (Rattus norvegicus [12]): 3
C[C@H](N)CC#Cc1ccccc1 | 0.784 | – | –
